For one experiment, the target named is T1, SERT (Homo sapiens, UniProt P31645).
T1 construct: purchased Perkin Elmer
As to the kind of experiment: Serotonin Binding Assay ([3H]-Citalopram Binding Assay). To be noted: NE = Not Effective; for inhibition at 0.1 µM / inhibition at 1 µM: 1 h. The procedure:
2. Serotonin Binding Assay
The Membrane protein of 0.4 mL size vial, with protein concentration of 9.0 mg/ml was bought from Perkin Elmer, stored in −80° C. until required.
[^3H]-Citalopram Binding Assay:
(§1) Each well of 96 well microtitre plate was set up to contain the following:
The microtitre plates were incubated at 25° C. for 60 min; reaction was stopped by filtration in GF/B filter plate (presoaked in 0.5% Polyethylenimine) and then added 50 μL of microscint 40. Radioactivity was measured on Liquid Scintillation counter (Perkin Elmer).

Another experiment addresses T2, NET (Homo sapiens, UniProt P23975).
T2 construct: purchased Perkin Elmer
Nature of the experiment: Norepinephrine Binding Assay ([3H]-Nisoxetine Binding Assay). The conditions noted are these: NE = Not Effective; for inhibition at 1 µM / inhibition at 0.1 µM: 1 h. On the procedure: 1. Norepinephrine Binding Assay
The Membrane protein of 0.4 mL size vial, with protein concentration of 3.0 mg/ml was bought from Perkin Elmer, stored in −80° C. until required.
[^3H]-Nisoxetine Binding Assay:
as §1
The microtitre plates were incubated at 4° C. for 60 mins; reaction was stopped by filtration in GF/B filter plate (presoaked in 0.5% Polyethylenimine) and then added 50 μl of microscint 40. Radioactivity was measured on Liquid Scintillation counter (Perkin Elmer).

In the next experiment the target is T3, DAT (Homo sapiens, UniProt Q01959).
T3 construct: purchased Perkin Elmer
T3 sequence (Q01959 whole entry): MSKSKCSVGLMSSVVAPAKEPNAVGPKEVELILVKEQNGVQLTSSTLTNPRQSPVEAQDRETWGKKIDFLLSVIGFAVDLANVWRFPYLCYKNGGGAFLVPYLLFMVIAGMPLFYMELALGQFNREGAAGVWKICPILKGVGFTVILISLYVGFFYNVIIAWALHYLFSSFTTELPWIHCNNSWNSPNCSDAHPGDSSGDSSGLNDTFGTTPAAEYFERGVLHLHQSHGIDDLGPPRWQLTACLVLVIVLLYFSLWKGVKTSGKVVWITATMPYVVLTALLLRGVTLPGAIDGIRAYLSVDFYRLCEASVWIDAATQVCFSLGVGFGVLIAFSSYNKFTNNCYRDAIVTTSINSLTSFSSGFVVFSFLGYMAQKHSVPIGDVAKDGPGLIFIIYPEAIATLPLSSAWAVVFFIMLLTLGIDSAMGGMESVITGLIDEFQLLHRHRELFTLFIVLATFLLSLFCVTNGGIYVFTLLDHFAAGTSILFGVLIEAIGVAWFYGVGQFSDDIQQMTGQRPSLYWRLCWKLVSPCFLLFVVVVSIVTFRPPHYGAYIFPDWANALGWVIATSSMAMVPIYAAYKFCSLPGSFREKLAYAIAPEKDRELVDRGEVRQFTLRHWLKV
As to the kind of experiment: Dopamine Binding Assay ([3H]-WIN35,428 Binding Assay). To be noted: NE = Not Effective; for inhibition at 0.1 µM / inhibition at 1 µM: 2 h; for inhibition at 0.1 µM: read-out: DAT % WIN 35428 displacement 100 nM, 100 nM test compound. The procedure:
3. Dopamine Binding Assay
The Membrane protein of 0.4 mL size vial, with protein concentration of 12 mg/mL was bought from Perkin Elmer, stored in −80° C. until required.
[^3H]-WIN35,428 Binding Assay:
as §1
The microtitre plates were incubated at 4° C. for 120 min; reaction was stopped by filtration in GF/B filter plate (presoaked in 0.5% Polyethylenimine) and then added 50 μL of microscint 40. Radioactivity was measured on Liquid Scintillation counter (Perkin Elmer).

The test system of a further experiment is male SWISS albino mice. As to the kind of experiment: Forced Swim Test in mice. The conditions noted are these: oral, 15 min before test, immobility in last 4 min of 6 min. In kind it is in vivo. On the procedure:
This test was conducted according to the method of Li, X., et al., Metabotropic Glutamate 5 Receptor Antagonism Is Associated with Antidepressant-Like Effects in Mice. J Pharmacol Exp Ther., 319(1):254-259 (2006), with slight modifications.
A test compound was suspended in 0.25% CMC, unless otherwise specified, and this solution was orally administered to male SWISS albino mice (7 to 9 week old). 15 min later, the mice were placed in a water tank having a water depth of 15 cm and a water temperature of 25±1° C. and immediately thereafter allowed to swim for 6 min. Then, a time during which the mouse was immobile (immobility time) was measured for the last 4 min.
Cleversys Software (Forced Swim Scan) was used for carrying out Forced Swim Test in mice.

The mark [1] stands for this setting: read-out: SERT % Citalopram displacement 100 nM, 100 nM test compound.
Setting [2] is: read-out: SERT % Citalopram displacement 1 μM, 1 μM test compound.
The mark [3] stands for this setting: 100 nM test compound, read-out: SERT % Citalopram displacement 100 nM.
Where [4] appears, read: 1 μM test compound, read-out: SERT % Citalopram displacement 1 μM.
Where [5] appears, read: 1 μM test compound, read-out: NET % Nisoxetine displacement 1 μM.
[6] abbreviates: 1 μM test compound, read-out: DAT % WIN 35428 displacement 1 μM.
Where [7] appears, read: read-out: NET % Nisoxetine displacement 100 nM, 100 nM test compound.
[8] abbreviates: read-out: NET % Nisoxetine displacement 1 μM, 1 μM test compound.
[9] abbreviates: read-out: DAT % WIN 35428 displacement 1 μM, 1 μM test compound.

Where two headings read alike, the source gives them in different places. Marks after values point to notes of the source that are not given here.

T2 sequence (P23975 whole entry): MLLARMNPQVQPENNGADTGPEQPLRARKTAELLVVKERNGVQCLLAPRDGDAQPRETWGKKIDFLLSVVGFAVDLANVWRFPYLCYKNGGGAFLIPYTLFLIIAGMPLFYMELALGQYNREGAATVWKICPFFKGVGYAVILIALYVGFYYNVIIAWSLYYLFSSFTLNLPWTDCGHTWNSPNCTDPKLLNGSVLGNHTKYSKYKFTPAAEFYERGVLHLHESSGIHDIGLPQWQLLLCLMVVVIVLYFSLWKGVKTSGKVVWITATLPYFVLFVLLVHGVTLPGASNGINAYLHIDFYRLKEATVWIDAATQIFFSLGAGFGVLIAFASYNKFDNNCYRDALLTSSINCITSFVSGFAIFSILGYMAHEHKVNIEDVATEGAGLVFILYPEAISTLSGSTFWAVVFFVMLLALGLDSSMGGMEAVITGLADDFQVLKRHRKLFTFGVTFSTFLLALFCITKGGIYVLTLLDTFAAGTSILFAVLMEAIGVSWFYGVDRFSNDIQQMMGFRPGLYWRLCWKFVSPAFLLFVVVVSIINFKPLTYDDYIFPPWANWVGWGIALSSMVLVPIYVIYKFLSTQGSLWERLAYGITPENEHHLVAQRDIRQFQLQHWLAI
T1 sequence (P31645 whole entry): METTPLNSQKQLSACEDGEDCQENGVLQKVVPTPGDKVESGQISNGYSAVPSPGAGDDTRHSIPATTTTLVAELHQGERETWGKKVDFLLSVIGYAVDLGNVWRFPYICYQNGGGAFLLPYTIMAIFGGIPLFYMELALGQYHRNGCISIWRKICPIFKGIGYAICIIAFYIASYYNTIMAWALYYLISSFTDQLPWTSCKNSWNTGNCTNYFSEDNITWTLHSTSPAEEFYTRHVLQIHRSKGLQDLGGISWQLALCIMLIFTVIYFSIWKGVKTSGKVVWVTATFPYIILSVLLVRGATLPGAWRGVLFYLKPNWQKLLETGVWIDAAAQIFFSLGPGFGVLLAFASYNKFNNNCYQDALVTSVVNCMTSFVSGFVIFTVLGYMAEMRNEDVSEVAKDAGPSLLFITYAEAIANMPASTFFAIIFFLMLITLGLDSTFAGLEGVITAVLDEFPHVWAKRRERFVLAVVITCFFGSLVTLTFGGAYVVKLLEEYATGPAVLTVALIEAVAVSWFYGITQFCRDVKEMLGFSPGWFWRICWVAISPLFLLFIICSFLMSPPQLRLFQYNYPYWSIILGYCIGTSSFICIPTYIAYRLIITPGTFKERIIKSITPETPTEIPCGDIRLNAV

Take `CON=C(c1ccc(Cl)c(Cl)c1)C1C2CNCC21` (stereo not drawn) [drawing 72]: the “SERT % Citalopram displacement 100 nM” value on SERT (100 nM test compound) came to 50.25%. Moreover, on SERT (1 μM test compound), the “SERT % Citalopram displacement 1 μM” value came to 90.07%. Besides, the “NET % Nisoxetine displacement 100 nM” value at NET (100 nM test compound) amounted to 24.48%. In addition, the “NET % Nisoxetine displacement 1 μM” value on NET (1 μM test compound) is recorded as 75.97%. The “DAT % WIN 35428 displacement 1 μM” value on DAT (1 μM test compound) came out at 64.58%. In addition, the inhibition at 0.1 µM on DAT was 28.1%.

For the compound `CON=C(c1ccccc1)C1C2CNCC21` (stereo not drawn), the inhibition at 0.1 µM on SERT (setting [1]) is 18.4%. Also, on SERT (setting [2]), the inhibition at 1 µM is 27.5%.

In the case of `Clc1ccc(C(=NOCC2CC2)C2C3CNCC32)cc1Cl` (stereo not drawn), the inhibition at 0.1 µM at SERT (setting [3]) was 69.8%. The inhibition at 1 µM was determined as 95.5% on SERT (setting [4]), 33.9% on NET (setting [5]) and 68.7% on DAT (setting [6]).

Consider `Clc1ccc(C23CNCC2C3C=NOCc2ccccc2)cc1Cl` (stereo not drawn), for which the inhibition at 0.1 µM was 23.3% at SERT (setting [1]), 34.6% at NET (setting [7]) and 27% at DAT. In addition, the inhibition at 1 µM at SERT (setting [2]) came out at 89%; at NET (setting [8]), 73.6%; at DAT (setting [9]) it was 39%.

With `CON=CC1C2CNCC12c1ccc(Cl)c(Cl)c1` (stereo not drawn), the inhibition at 0.1 µM is 65% at SERT (setting [1]), 37.4% on NET (setting [7]) and 30.6% on DAT. In addition, the inhibition at 1 µM came out at 91.8% on SERT (setting [2]), 82.3% at NET (setting [8]) and 66.3% at DAT (setting [9]).

With `ON=C(c1ccc(Cl)c(Cl)c1)C1C2CNCC21` (stereo not drawn), the inhibition at 0.1 µM at SERT (setting [1]) amounted to 29.8%. For the same compound, the inhibition at 1 µM at SERT (setting [2]) was determined as 74.8%; at NET (setting [8]), 25.1%; at DAT (setting [9]), 49.6%.

In the case of `C=CCON=C(c1ccc(Cl)c(Cl)c1)C1C2CNCC21` (stereo not drawn), the inhibition at 0.1 µM came to 72.6% on SERT (setting [3]) and 14.3% at NET (100 nM test compound, read-out: NET % Nisoxetine displacement 100 nM). Moreover, the inhibition at 1 µM stood at 94.4% on SERT (setting [4]), 71.3% on NET (setting [5]) and 78% on DAT (setting [6]).

As for `Clc1ccc(C(=NOc2ccccc2)C2C3CNCC32)cc1Cl` (stereo not drawn), the inhibition at 1 µM at SERT (setting [4]) is 61.4%; at NET (setting [5]), 19.1%.

Take `Clc1ccc(C(=NOCc2ccccc2)C2C3CNCC32)cc1Cl` (stereo not drawn): on SERT (setting [3]), the inhibition at 0.1 µM worked out at 30.4%. The inhibition at 1 µM on SERT (setting [4]) turned out to be 85.8%; on NET (setting [5]) it was 27.2%; at DAT (setting [6]), 36%.

For the compound `Fc1ccc(CON=CC2C3CNCC23c2ccc(Cl)c(Cl)c2)cc1` (stereo not drawn), at SERT (setting [3]), the inhibition at 0.1 µM was 12.5%. Besides, the inhibition at 1 µM at SERT (setting [4]) worked out at 88.8%; on NET (setting [5]) it was 74.2%; at DAT (setting [6]), 40.9%.

For `CON=CC1C2CNCC12c1ccc(Cl)cc1` (stereo not drawn), the inhibition at 0.1 µM at SERT (setting [1]) worked out at 37.8%. Also, the results for the inhibition at 1 µM on SERT (setting [2]), on NET (setting [8]) and on DAT (setting [9]) were 85.6%, 54.5% and 29.9%, respectively.

In the case of `CON=C(c1ccc2ccccc2c1)C1C2CNCC21` (stereo not drawn), the inhibition at 0.1 µM at SERT (setting [1]) was 77.2%; on NET (setting [7]), 21.8%. The inhibition at 1 µM on SERT (setting [2]) was found to be 93.4%; at NET (setting [8]), 60.5%.

As for `CCON=CC1C2CNCC12c1ccc(Cl)c(Cl)c1.Cl` (stereo not drawn), in the experiment with male SWISS albino mice (suspended in 0.25% CMC), the “% decrease in immobility time (dose 32 mg/kg)” value (“% decrease in immobility time” below) turned out to be 83.1 ± 9.6%.

For `CON=CC1C2CNCC12c1ccc(Cl)c(Cl)c1.Cl` (stereo not drawn), the “% decrease in immobility time” value with male SWISS albino mice (vehicle de-ionized water) is listed as 87.5 ± 4.1^z %.

With `CON=CC1C2CNCC12c1ccc(Cl)cc1.Cl` (stereo not drawn), the “% decrease in immobility time” value in the experiment with male SWISS albino mice (vehicle de-ionized water) is listed as 50.2 ± 14.7^z %.

Consider `CON=CC1C2CNCC12c1ccccc1.Cl` (stereo not drawn), for which the “% decrease in immobility time” value in the experiment with male SWISS albino mice (suspended in 0.25% CMC) worked out at 60.4 ± 12.6%.

In the case of `CON=CC1C2CNCC12c1ccc(F)cc1.Cl` (stereo not drawn), the “% decrease in immobility time” value in the experiment with male SWISS albino mice (vehicle de-ionized water) was 55.1 ± 13.0^z %.

On to `CON=C(c1ccc(Cl)c(Cl)c1)C1C2CNCC21.Cl` (stereo not drawn), for which the “% decrease in immobility time” value in the experiment with male SWISS albino mice (vehicle de-ionized water) is on record as 80.0 ± 3.8^z %.

Turning to `CCON=C(c1ccc(Cl)c(Cl)c1)C1C2CNCC21` (stereo not drawn), the inhibition at 0.1 µM on SERT (setting [1]) was found to be 49.8%; on NET (setting [7]), 18.2%. In addition, the inhibition at 1 µM on SERT (setting [2]) is 87.5%; at NET (setting [8]), 61.5%; on DAT (setting [9]), 71%.

In the case of `CON=CC1C2CNCC12c1ccccc1` (stereo not drawn), on SERT (setting [1]), the inhibition at 0.1 µM is 39.2%. Further, the inhibition at 1 µM on SERT (setting [2]) was determined as 79.9%.

As to `CCON=CC1C2CNCC12c1ccc(Cl)c(Cl)c1` (stereo not drawn), the inhibition at 0.1 µM was 83.7% at SERT (setting [1]) and 16.7% at DAT. Further, the figures for the inhibition at 1 µM at SERT (setting [2]) and on DAT (setting [9]) were 94.4% and 71.8%, respectively.

Consider `CON=C(c1ccc(Cl)c(Cl)c1)C1C2CNCC21.Cl` (stereo not drawn) [drawing 66], for which the figures for the inhibition at 0.1 µM on SERT (setting [1]) and at NET (setting [7]) were 43.1% and 15.6%, respectively. Besides, the inhibition at 1 µM was found to be 84.8% on SERT (setting [2]) and 75.6% on NET (setting [8]). Also, at DAT (1 μM test compound), the “DAT % WIN 35428 displacement 1 μM” value is 32.76%.

As to `CON=CC1C2CNCC12c1ccc(F)cc1` (stereo not drawn), the inhibition at 0.1 µM at SERT (setting [1]) is 43.5%. Also, the inhibition at 1 µM at SERT (setting [2]) is 85.1%.

Values taken from patent US9133116B2, “Bicyclic compounds” (PANACEA BIOTEC LTD., priority 2010, dated 2015).
